Results on four molecules are retold here after patent publication US7384787B2, “Increasing perhydrolase activity in esterases and/or lipases” (Regents of the University of Minnesota, priority 2005, dated 2008).

Residue numbers refer to the chain shown, from its start. In names and notes the source's numbering stands. Like-named read-outs stand apart in the source and are kept apart here.

In data set [1] the target is T1, Pseudomonas fluorescens aryl esterase (PFE) variant Leu29Pro (parent SEQ ID NO:3) (Pseudomonas fluorescens, UniProt P22862, L30P).
T1 sequence (P22862 1-272 L30P): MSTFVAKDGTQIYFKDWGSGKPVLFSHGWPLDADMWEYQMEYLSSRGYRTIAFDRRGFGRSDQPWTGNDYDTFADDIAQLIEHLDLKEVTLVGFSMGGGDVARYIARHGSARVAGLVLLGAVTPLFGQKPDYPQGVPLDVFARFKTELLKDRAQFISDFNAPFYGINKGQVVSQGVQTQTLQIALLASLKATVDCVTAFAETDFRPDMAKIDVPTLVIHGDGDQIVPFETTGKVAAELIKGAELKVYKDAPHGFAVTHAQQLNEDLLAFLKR
Put plainly: Kinetics of p-nitrophenyl acetate hydrolysis, Leu29Pro PFE. Also noted: expressed as in Cheeseman et al. 2004. It is filed as biochemical. On the procedure: (§1) The p-nitrophenyl acetate (pNPAc) assay contained pNPAc (0.3 mM) and 8% acetonitrile as co-solvent in BES buffer (5 mM, pH 7.2). The reaction was monitored spectrophotometrically at 404 nm (ε=11.4·10 ^3 M^−1 cm^−1). A pH-indicator assay was used to assay substrates without inherent light absorbing properties (Janes et al., 1998, Chem. Eur. J. 4:2324-2331). The reactions were carried out in BES buffer (5 mM, pH 7.2) containing p-nitrophenol. As hydrolysis progresses, protons add to the p-nitrophenolate and the course of reaction can be monitored as a decrease in absorbance at 404 nm (ε=16.5·10^3 M^−1 cm^−1). This provides a good estimate of reaction rates, but is limited to substrates containing only one possible acid-functionality, as several would interfere with the pH indicator.
(§2) Kinetic parameters for hydrolysis of pNPAc in wild-type and Leu29Pro were carried out with pNPAc at 0.1, 0.2, 0.5, 1.0, 2.0, 4.0, and 10 mM under otherwise identical conditions as for the pNPAc-assay. Solubility problems limited higher substrate concentrations than 10 mM. Data points were fitted by non-linear regression using OriginPro 7.5 SR1 v7.5776 (OriginLab Corporation, Northampton, Mass.) with a hyperbola function of basic equation y=P1*x/(P2+x), where x is the substrate concentration (mM), P1 corresponds to Vmax (μmol min^−1 mg^−1 or U/mg), and P2 corresponds to KM (mM). R^2-values for were 0.992 and 0.997 for wild-type and Leu29Pro, respectively.

In data set [2] the target is T2, Pseudomonas fluorescens aryl esterase (PFE), wild-type, SEQ ID NO:3 (Pseudomonas fluorescens, UniProt P22862).
T2 sequence (P22862 1-272): T1 sequence (P22862 1-272 L30P) with P30L
On the procedure:
(§3) Activity assays were performed in quadruplicates on 96-well microtiter plates with a reaction volume of 100 μl (90 μl assay solution to 10 μl enzyme in 5 mM BES pH 7.2). The path-length for light through the well was 0.29 cm.
(§4) The monochlorodimedon (MCD) assay (Hager et al., 1966, J. Biol. Chem., 241:1769-1777) was used to detect peracid formation. Each reaction contained MCD (0.18 mM), H2O2 (90 mM), NaBr (90 mM) in acetate buffer (1 M, pH 5.5) at 25° C. The reaction was followed spectrophotometrically at 290 nm in UV-transparent microtiter plates (ε=19.9×10^3 M^−1 cm^−1).
(§5) An estimate of kinetic parameters was also obtained for hydrogen peroxide in wild-type and Leu29Pro. The hydrogen peroxide in wild-type was 5, 10, 20, 50, 100, and 200 mM; for Leu29Pro, the concentrations were 5, 10, 20, 35, 50, 121, 152, and 200 mM.

Data set [3] addresses T1, Pseudomonas fluorescens aryl esterase (PFE) variant Leu29Pro (parent SEQ ID NO:3). On the procedure:
as §3, §4, §5

Substrate in data set [4]: CC(=O)Oc1ccc([N+](=O)[O-])cc1
Put plainly: Kinetics of p-nitrophenyl acetate hydrolysis, wild-type PFE. It is filed as biochemical, Pseudomonas fluorescens. The note with it: other: hydrolysis of pNPAc 0.1-10 mM, 5 mM BES pH 7.2, 8% acetonitrile. On the procedure: as §1, §2

Substrate in data set [5]: CC(=O)Oc1ccc([N+](=O)[O-])cc1
As to the kind of experiment: Kinetics of p-nitrophenyl acetate hydrolysis, Leu29Pro PFE. Format: biochemical, Pseudomonas fluorescens. The note with it: other: hydrolysis of pNPAc 0.1-10 mM, 5 mM BES pH 7.2, 8% acetonitrile. As to the method:
as §1, §2

Where [6] appears, read: perhydrolysis, H2O2 5-200 mM, 1 M acetate pH 5.5, 25° C.
[7] abbreviates: perhydrolysis, H2O2 5-200 mM, 1 M acetate pH 5.5, 25° C., Leu29Pro.

`CC(=O)Oc1ccc([N+](=O)[O-])cc1` [pNPAc, p-nitrophenyl acetate]: in data set [1] (Leu29Pro vs wild-type), the “fold decrease in Vmax for hydrolysis of pNPAc” value is given as 50 fold and the “increase in KM for pNPAc” value is “three-fold”. Besides, the “fold change in catalytic efficiency (Vmax/KM) for hydrolysis of pNPAc” value in data set [1] (Leu29Pro vs wild-type (decrease)) is reported as 165 fold.
As for `OO` [H2O2, hydrogen peroxide], the Vmax/KM in data set [2] (perhydrolysis of acetic acid, H2O2) stood at 13 U mg^−1 M^−1; in data set [3] (perhydrolysis of acetic acid, H2O2, Leu29Pro), 180 U mg^−1 M^−1. The Km turned out to be 17 mM in data set [2] (setting [6]) and 58 mM in data set [3] (setting [7]). The Vmax is on record as 0.22 ± 0.02 U mg^−1 in data set [2] (setting [6]); 0.22 U mg^−1 in data set [2] (perhydrolysis, H2O2 5-200 mM, 1 M acetate pH 5.5, 25° C., listed as hydrogen peroxide); 11 ± 1 U mg^−1 in data set [3] (setting [7]); 11 U mg^−1 in data set [3] (perhydrolysis, H2O2 5-200 mM, 1 M acetate pH 5.5, 25° C., Leu29Pro, listed as hydrogen peroxide). For the same molecule, the “fold increase in Vmax for perhydrolysis” value in data set [3] (Leu29Pro vs wild-type) is recorded as 50 fold. In addition, in data set [3] (Leu29Pro vs wild-type), the “fold increase in catalytic efficiency (Vmax/KM) for perhydrolysis of acetic acid” value was determined as 14 fold. Besides, the “increase in Km for hydrogen peroxide” value in data set [3] (Leu29Pro vs wild-type) is given as “three-fold”.

B1: Pseudomonas fluorescens aryl esterase (PFE), wild-type, SEQ ID NO:3 (Pseudomonas fluorescens) (protein)
chain: T1 sequence (P22862 1-272 L30P) with P30L
notes: expressed as in Cheeseman et al. 2004
In the case of B1, in data set [4], the Km came out at 2.8 ± 0.4 mM, the Vmax came to 143 µmol/min/mg and the Vmax/Km stood at 51000 µL/min/mg.

B2: Pseudomonas fluorescens aryl esterase (PFE) variant Leu29Pro (parent SEQ ID NO:3) (Pseudomonas fluorescens; L30P) (protein)
chain: T1 sequence (P22862 1-272 L30P)
notes: as for B1
Take B2: in data set [5], the Michaelis-Menten constant (Km) worked out at 8.9 ± 1.1 mM, the Vmax was 2.8 µmol/min/mg and the Vmax/Km was found to be 310 µL/min/mg.

By Km is commonly meant the substrate concentration at which the rate is half of its maximum.
